# Patent US20230321086A1, “METHODS AND MATERIALS FOR INHIBITING NICOTINAMIDE PHOSPHORIBOSYLTRANSFERASE ACTIVITY” (Universiy of Pittsburgh - Of the Commonwealth System of …, priority 2020, published 2023)
# Experiments:
# NAMPT = NAMPT (Homo sapiens, UniProt P43490); assay: Assay for in vitro NAMPT activity via NMN assessment; format: biochemical; conditions: read-out: A: NAMPT enzyme inhibitory activity, IC50
# Description: The following were added to a well: 20 μL 2× test compound in Basic Buffer (0.02% BSA, 2 mM DTT, 12 mM MgCl2, 50 mM Tris pH7.5); 10 μL 8 μg/mL NAMPT, and 200 μM PRPP working solution (or PRPP working solution to background wells). 10 μL 100 μM NAM working solution was added to start the reaction. The plate was sealed and incubated for 45 minutes at 37° C. After incubation, 10 μL 20% acetophenone in DMSO, 10 μL 2N KOH, and 20 μL 88% formic acid were added. The plate was sealed and incubated for 30 minutes at 37° C. After incubation, fluorescence at Ex/Em 387/441 was read.
# In each table header, A: NAMPT enzyme inhibitory activity, IC50 (μM); B: Cellular NAD inhibitory activity, IC50 (μM); and C: change in NAD levels in response to test compound, shown as % of NAD activity in the absence of test compound. […] A percentage of 100 percent would indicate no increase or decrease in NAD levels as compared to that measured for untreated control cells, while a percentage of 50 percent would indicate a decrease in NAD levels of 50 percent as compared to that measured for untreated control cells.
# A431 cells = assay: Assay for total NADH and NAD+ measurements in cells; format: cell-based; conditions: Homo sapiens, A-431, read-out: B: Cellular NAD inhibitory activity, IC50
# Summary of the method: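 Cells (2,000/well) treated with compounds overnight, washed with PBS containing 1 mM CaCl2 and MgCl2, lysed with 0.4% DTAB in phosphate buffer pH 8.0. Reaction mix added and fluorescence (Ex/Em 530/585) followed over 8 cycles every 92 seconds; NAD given as % of untreated control.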
# Chain of NAMPT (P43490 whole entry, species assumed): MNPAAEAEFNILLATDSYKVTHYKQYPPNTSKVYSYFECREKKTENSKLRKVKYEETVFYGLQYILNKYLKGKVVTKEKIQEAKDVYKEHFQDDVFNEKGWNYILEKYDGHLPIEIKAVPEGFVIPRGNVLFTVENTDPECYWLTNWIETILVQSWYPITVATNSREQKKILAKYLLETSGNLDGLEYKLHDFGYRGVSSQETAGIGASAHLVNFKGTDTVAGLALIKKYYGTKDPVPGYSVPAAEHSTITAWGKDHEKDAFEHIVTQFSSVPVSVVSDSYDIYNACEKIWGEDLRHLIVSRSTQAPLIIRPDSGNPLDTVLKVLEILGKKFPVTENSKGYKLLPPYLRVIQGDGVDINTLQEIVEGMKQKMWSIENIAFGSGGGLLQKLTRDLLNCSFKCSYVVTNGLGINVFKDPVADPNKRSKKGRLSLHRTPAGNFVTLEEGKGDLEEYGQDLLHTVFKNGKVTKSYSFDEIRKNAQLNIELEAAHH
Compound,IC50 (NAMPT),IC50 (A431 cells)
O=C(NCc1cccnc1)c1ccc2nc(-c3ccccc3)c(-c3ccccc3)nc2c1 [BC18405],< 1 µM,< 1 µM
O=C(NCCc1cccnc1)c1cnc2nc(-c3ccc(F)cc3)c(-c3ccc(F)cc3)nc2c1 [BC20205],< 1 µM,< 1 µM
CC(=O)Nc1cccc(-c2nc3ccc(C(=O)N4CCN(C)CC4)cc3nc2-c2cccc(NC(C)=O)c2)c1 [BC20241],≥ 25 µM,
CN1CCN(C(=O)c2ccc3nc(-c4cccc(CN5CCCC5)c4)c(-c4cccc(CN5CCCC5)c4)nc3c2)CC1 [BC20242],≥ 25 µM,
CN1CCN(Cc2cccc(-c3nc4ccc(C(=O)N5CCN(C)CC5)cc4nc3-c3cccc(CN4CCN(C)CC4)c3)c2)CC1 [BC20243],≥ 25 µM,
C#CCNC(=O)c1ccc2nc(-c3ccc(F)cc3)c(-c3cccc(N(C)C)c3)nc2c1 [BC20244],≥ 25 µM,
COCC(=O)Nc1cccc(-c2nc3ccc(C(=O)N4CCN(C)CC4)cc3nc2-c2ccc(F)cc2)c1 [BC20245],≥ 25 µM,
CN1CCN(C(=O)c2ccc3nc(-c4cccc(N(C)C)c4)c(-c4ccc(F)cc4)nc3c2)CC1 [BC20246],≥ 25 µM,
C#CCNC(=O)c1ccc2nc(-c3cccc(NS(C)(=O)=O)c3)c(-c3ccc(F)cc3)nc2c1 [BC20247],1 to 25 µM,
CN1CCN(C(=O)c2ccc3nc(-c4cccc(CN5CCCC5)c4)c(-c4ccc(F)cc4)nc3c2)CC1 [BC20248],≥ 25 µM,
CN1CCN(Cc2cccc(-c3nc4ccc(C(=O)N5CCN(C)CC5)cc4nc3-c3ccc(F)cc3)c2)CC1 [BC20249],≥ 25 µM,
O=C(NCc1ccc2nc(-c3ccc(F)cc3)c(-c3ccc(F)cc3)nc2c1)NC1CCCNC1 (stereo not drawn) [BC20250],≥ 25 µM,
CN1CCCC(NC(=O)NCc2ccc3nc(-c4ccc(F)cc4)c(-c4ccc(F)cc4)nc3c2)C1 (stereo not drawn) [BC20251],≥ 25 µM,
CC(=O)N1CCCC(NC(=O)NCc2ccc3nc(-c4ccc(F)cc4)c(-c4ccc(F)cc4)nc3c2)C1 (stereo not drawn) [BC20252],≥ 25 µM,
CS(=O)(=O)N1CCCC(NC(=O)NCc2ccc3nc(-c4ccc(F)cc4)c(-c4ccc(F)cc4)nc3c2)C1 (stereo not drawn) [BC20253],≥ 25 µM,
O=C(Nc1cnc2nc(-c3ccc(F)cc3)c(-c3ccc(F)cc3)nc2c1)NC1CCCNC1 (stereo not drawn) [BC20255],≥ 25 µM,
CS(=O)(=O)N1CCCC(NC(=O)Nc2cnc3nc(-c4ccc(F)cc4)c(-c4ccc(F)cc4)nc3c2)C1 (stereo not drawn) [BC20256],1 to 25 µM,
CN1CCN(C(=O)c2ccc3nc(-c4cccc(NS(C)(=O)=O)c4)c(-c4cccc(NS(C)(=O)=O)c4)nc3c2)CC1 [BC20258],≥ 25 µM,
CN1CCN(C(=O)c2ccc3nc(-c4cccc(CNS(C)(=O)=O)c4)c(-c4cccc(CNS(C)(=O)=O)c4)nc3c2)CC1 [BC20259],≥ 25 µM,
CN(C)Cc1cccc(-c2nc3ccc(C(=O)N4CCN(C)CC4)cc3nc2-c2cccc(CN(C)C)c2)c1 [BC20260],≥ 25 µM,
C#CCNC(=O)c1ccc2nc(-c3cccc(CNS(C)(=O)=O)c3)c(-c3cccc(CNS(C)(=O)=O)c3)nc2c1 [BC20261],≥ 25 µM,
CN1CCN(C(=O)c2ccc3nc(-c4ccc(F)cc4)c(-c4cccc(N(C)C)c4)nc3c2)CC1 [BC20262],≥ 25 µM,

Compound,IC50 (NAMPT),IC50 (A431 cells)
CN(C)CC(=O)NCc1cccc(-c2nc3cc(C(=O)N4CCN(C)CC4)ccc3nc2-c2ccc(F)cc2)c1 [BC20263],≥ 25 µM,
COCC(=O)NCc1cccc(-c2nc3cc(C(=O)N4CCN(C)CC4)ccc3nc2-c2ccc(F)cc2)c1 [BC20264],≥ 25 µM,
CN1CCN(C(=O)c2ccc3nc(-c4ccc(F)cc4)c(-c4cccc(CN5CCCC5)c4)nc3c2)CC1 [BC20265],≥ 25 µM,
C#CCNC(=O)c1ccc2nc(-c3cccc(NC(=O)CN(C)C)c3)c(-c3ccc(F)cc3)nc2c1 [BC20266],≥ 25 µM,
O=C(NCc1ccc2nc(-c3ccc(F)cc3)c(-c3ccc(F)cc3)nc2c1)c1cccnc1 [BC20267],1 to 25 µM,
CN1CCCC(NC(=O)Nc2cnc3nc(-c4ccc(F)cc4)c(-c4ccc(F)cc4)nc3c2)C1 (stereo not drawn) [BC20269],≥ 25 µM,
CS(=O)(=O)N1CCC[C@H](CNC(=O)c2ccc3nc(-c4ccc(F)cc4)c(-c4ccc(F)cc4)nc3c2)C1 [BC20270],≥ 25 µM,
CC(=O)N1CCC[C@H](CNC(=O)c2ccc3nc(-c4ccc(F)cc4)c(-c4ccc(F)cc4)nc3c2)C1 [BC20271],≥ 25 µM,
CC(=O)NCc1cccc(-c2nc3ccc(C(=O)N4CCN(C)CC4)cc3nc2-c2cccc(CNC(C)=O)c2)c1 [BC20272],≥ 25 µM,
COCC(=O)NCc1cccc(-c2nc3ccc(C(=O)N4CCN(C)CC4)cc3nc2-c2cccc(CNC(=O)COC)c2)c1 [BC20273],≥ 25 µM,
C#CCNC(=O)c1ccc2nc(-c3cccc(CNC(C)=O)c3)c(-c3cccc(CNC(C)=O)c3)nc2c1 [BC20274],≥ 25 µM,
C#CCNC(=O)c1ccc2nc(-c3cccc(CNC(=O)COC)c3)c(-c3cccc(CNC(=O)COC)c3)nc2c1 [BC20275],≥ 25 µM,
C#CCNC(=O)c1ccc2nc(-c3ccc(F)cc3)c(-c3cccc(CNC(=O)COC)c3)nc2c1 [BC20276],≥ 25 µM,
O=C1N(Cc2cccnc2)CCN1c1ccc2nc(-c3ccc(F)cc3)c(-c3ccc(F)cc3)nc2c1 [BC20277],1 to 25 µM,
O=C(Cc1cccnc1)NCc1ccc2nc(-c3ccc(F)cc3)c(-c3ccc(F)cc3)nc2c1 [BC20278],1 to 25 µM,
O=C(NC[C@H]1CCCNC1)c1ccc2nc(-c3ccc(F)cc3)c(-c3ccc(F)cc3)nc2c1 [BC20279],≥ 25 µM,
CN1CCC[C@H](CNC(=O)c2ccc3nc(-c4ccc(F)cc4)c(-c4ccc(F)cc4)nc3c2)C1 [BC20280],1 to 25 µM,
COCC(=O)N1CCC[C@H](CNC(=O)c2ccc3nc(-c4ccc(F)cc4)c(-c4ccc(F)cc4)nc3c2)C1 [BC20281],≥ 25 µM,
COCCNC(=O)N1CCC[C@H](CNC(=O)c2ccc3nc(-c4ccc(F)cc4)c(-c4ccc(F)cc4)nc3c2)C1 [BC20282],≥ 25 µM,
CCCC(=O)N1CCC[C@H](CNC(=O)c2ccc3nc(-c4ccc(F)cc4)c(-c4ccc(F)cc4)nc3c2)C1 [BC20283],≥ 25 µM,
CS(=O)(=O)N1CCC[C@H](CNC(=O)NCc2ccc3nc(-c4ccc(F)cc4)c(-c4ccc(F)cc4)nc3c2)C1 [BC20284],1 to 25 µM,
O=C(NCc1ccc2nc(-c3ccc(F)cc3)c(-c3ccc(F)cc3)nc2c1)NC[C@H]1CCCNC1 [BC20285],1 to 25 µM,

Compound,IC50 (NAMPT),IC50 (A431 cells)
CN(C)CC(=O)Nc1cccc(-c2nc3ccc(C(=O)N4CCN(C)CC4)cc3nc2-c2cccc(NC(=O)CN(C)C)c2)c1 [BC20286],≥ 25 µM,
C#CCNC(=O)c1ccc2nc(-c3cccc(NS(C)(=O)=O)c3)c(-c3cccc(NS(C)(=O)=O)c3)nc2c1 [BC20288],≥ 25 µM,
C#CCNC(=O)c1ccc2nc(-c3cccc(CNC(=O)CN(C)C)c3)c(-c3cccc(CNC(=O)CN(C)C)c3)nc2c1 [BC20289],≥ 25 µM,
CN1CCN(C(=O)c2ccc3nc(-c4cccc(NS(C)(=O)=O)c4)c(-c4ccc(F)cc4)nc3c2)CC1 [BC20290],≥ 25 µM,
O=C1N(Cc2cccnc2)CCN1c1cnc2nc(-c3ccc(F)cc3)c(-c3ccc(F)cc3)nc2c1 [BC20291],≥ 25 µM,
CC(C)CC(=O)N1CCC[C@H](CNC(=O)c2ccc3nc(-c4ccc(F)cc4)c(-c4ccc(F)cc4)nc3c2)C1 [BC20292],≥ 25 µM,
CCCS(=O)(=O)N1CCCC(NC(=O)Nc2cnc3nc(-c4ccc(F)cc4)c(-c4ccc(F)cc4)nc3c2)C1 (stereo not drawn) [BC20293],≥ 25 µM,
CN1CCC[C@H](CNC(=O)NCc2ccc3nc(-c4ccc(F)cc4)c(-c4ccc(F)cc4)nc3c2)C1 [BC20294],≥ 25 µM,
C#CCCC(=O)N1CCC[C@H](CNC(=O)c2ccc3nc(-c4ccc(F)cc4)c(-c4ccc(F)cc4)nc3c2)C1 [BC20295],≥ 25 µM,
COCC(=O)NCc1cccc(-c2nc3ccc(C(=O)N4CCN(C)CC4)cc3nc2-c2ccc(F)cc2)c1 [BC20296],≥ 25 µM,
C#CCNC(=O)Nc1cnc2nc(-c3ccc(F)cc3)c(-c3ccc(F)cc3)nc2c1 [BC20297],≥ 25 µM,
COCCNC(=O)Nc1cnc2nc(-c3ccc(F)cc3)c(-c3ccc(F)cc3)nc2c1 [BC20298],≥ 25 µM,
CC(=O)N1CCC[C@H](CNC(=O)Nc2ccc3nc(-c4ccc(F)cc4)c(-c4ccc(F)cc4)nc3c2)C1 [BC20299],1 to 25 µM,
CS(=O)(=O)N1CCCC(CNC(=O)Nc2ccc3nc(-c4ccc(F)cc4)c(-c4ccc(F)cc4)nc3c2)C1 (stereo not drawn) [BC20300],1 to 25 µM,
CC(=O)N1CCCC(CNC(=O)NCc2ccc3nc(-c4ccc(F)cc4)c(-c4ccc(F)cc4)nc3c2)C1 (stereo not drawn) [BC20301],1 to 25 µM,
Fc1ccc(-c2nc3cc4[nH]c(=S)n(CCc5cccnc5)c4nc3nc2-c2ccc(F)cc2)cc1 [BC20305],≥ 25 µM,
CC(=O)NCc1cccc(-c2nc3ccc(C(=O)N4CCN(C)CC4)cc3nc2-c2ccc(F)cc2)c1 [BC20306],≥ 25 µM,
CN(C)Cc1cccc(-c2nc3ccc(C(=O)N4CCN(C)CC4)cc3nc2-c2ccc(F)cc2)c1 [BC20307],≥ 25 µM,
O=C(NCCc1cccnc1)Nc1ccc2nc(-c3ccc(F)cc3)c(-c3ccc(F)cc3)nc2n1 [BC20310],< 1 µM,
CN(C)CCNC(=O)Nc1cnc2nc(-c3ccc(F)cc3)c(-c3ccc(F)cc3)nc2c1 [BC20312],≥ 25 µM,
